Test results: patent US12539292B2, “BRM targeting compounds and associated methods of use” (Arvinas Operations, Inc., priority 2018, dated 2026)
Read-outs that look alike come from different tables or passages of the source.

Target: T1, BRM (Homo sapiens, UniProt P51531)
T1 construct: In-Cell Western Screen of BRM Degradation in SW1573 Cells; endogenous in cells; host or cells: SW1573
Experiment: In-cell Western screen of BRM degradation in SW1573 cells (Dmax and DC50)
Type: cell-based
Conditions: for Dmax: read-out: **Dmax (%) (% degraded)
Method: In-Cell Western Screen of BRM Degradation in SW1573 Cells
To assess BRM degradation (Dmax and DC50), cells were seeded at 8000/well in 96-well black/clear-bottom plates in 180 μL DMEM growth media (containing 1% pen-strep, 1% HEPES and 10% FBS) per well. Plates were incubated overnight to allow adhesion. The next morning cells were treated by adding 20 μL of 10× compound (1% DMSO) to appropriate wells and returned to incubator for overnight (18-20 hours). The final DMSO concentration was 0.1%.
For processing, the plates were removed from incubator, the media was removed, and immediately 200 μL of cold (4° C.) DPBS was added to all wells. DPBS was then removed, and 50 μL of 4% paraformaldehyde (PFA) in DPBS (4° C.) was added to all wells, and the plates were incubated at room temperature for 20 minutes. PFA was then removed, and 200 μL of TBS-T containing 0.5% Triton X-100 was added to all wells, and the plates were incubated at room temperature for 30 minutes. TBS-T containing 0.5% Triton X-100 was then removed, and 50 μL of Li-Cor blocking solution was added, and the plates were incubated at room temperature for a minimum of one hour.
The next day plates were washed three times with TBS-T, 200 μL per well. Fifty (50) μL of secondary antibody cocktail in LI-COR blocking solution (anti-rabbit_800 nm and anti-mouse_680 nm) was added to all wells (diluted 1:5000). The plates were incubated at room temperature for at least one hour while protected from light. The plates were washed twice with TBS-T, 200 μL per well.
To read each plate TBS-T was removed, and each plate was inverted tapped on a paper towel. The plates were read on the LI-COR Odyssey with default intensity settings of 5.0 for both channels. LI-COR images were analyzed with the in-cell Western feature of Image Studio Lite.

[1] = degradation of BRM, read-out: BRM DC50
[2] = BRM degradation, SW1573 cells, Table 2D, read-out: *DC50
[3] = BRM degradation, SW1573 cells, Table 2D

T1 sequence (P51531 whole entry): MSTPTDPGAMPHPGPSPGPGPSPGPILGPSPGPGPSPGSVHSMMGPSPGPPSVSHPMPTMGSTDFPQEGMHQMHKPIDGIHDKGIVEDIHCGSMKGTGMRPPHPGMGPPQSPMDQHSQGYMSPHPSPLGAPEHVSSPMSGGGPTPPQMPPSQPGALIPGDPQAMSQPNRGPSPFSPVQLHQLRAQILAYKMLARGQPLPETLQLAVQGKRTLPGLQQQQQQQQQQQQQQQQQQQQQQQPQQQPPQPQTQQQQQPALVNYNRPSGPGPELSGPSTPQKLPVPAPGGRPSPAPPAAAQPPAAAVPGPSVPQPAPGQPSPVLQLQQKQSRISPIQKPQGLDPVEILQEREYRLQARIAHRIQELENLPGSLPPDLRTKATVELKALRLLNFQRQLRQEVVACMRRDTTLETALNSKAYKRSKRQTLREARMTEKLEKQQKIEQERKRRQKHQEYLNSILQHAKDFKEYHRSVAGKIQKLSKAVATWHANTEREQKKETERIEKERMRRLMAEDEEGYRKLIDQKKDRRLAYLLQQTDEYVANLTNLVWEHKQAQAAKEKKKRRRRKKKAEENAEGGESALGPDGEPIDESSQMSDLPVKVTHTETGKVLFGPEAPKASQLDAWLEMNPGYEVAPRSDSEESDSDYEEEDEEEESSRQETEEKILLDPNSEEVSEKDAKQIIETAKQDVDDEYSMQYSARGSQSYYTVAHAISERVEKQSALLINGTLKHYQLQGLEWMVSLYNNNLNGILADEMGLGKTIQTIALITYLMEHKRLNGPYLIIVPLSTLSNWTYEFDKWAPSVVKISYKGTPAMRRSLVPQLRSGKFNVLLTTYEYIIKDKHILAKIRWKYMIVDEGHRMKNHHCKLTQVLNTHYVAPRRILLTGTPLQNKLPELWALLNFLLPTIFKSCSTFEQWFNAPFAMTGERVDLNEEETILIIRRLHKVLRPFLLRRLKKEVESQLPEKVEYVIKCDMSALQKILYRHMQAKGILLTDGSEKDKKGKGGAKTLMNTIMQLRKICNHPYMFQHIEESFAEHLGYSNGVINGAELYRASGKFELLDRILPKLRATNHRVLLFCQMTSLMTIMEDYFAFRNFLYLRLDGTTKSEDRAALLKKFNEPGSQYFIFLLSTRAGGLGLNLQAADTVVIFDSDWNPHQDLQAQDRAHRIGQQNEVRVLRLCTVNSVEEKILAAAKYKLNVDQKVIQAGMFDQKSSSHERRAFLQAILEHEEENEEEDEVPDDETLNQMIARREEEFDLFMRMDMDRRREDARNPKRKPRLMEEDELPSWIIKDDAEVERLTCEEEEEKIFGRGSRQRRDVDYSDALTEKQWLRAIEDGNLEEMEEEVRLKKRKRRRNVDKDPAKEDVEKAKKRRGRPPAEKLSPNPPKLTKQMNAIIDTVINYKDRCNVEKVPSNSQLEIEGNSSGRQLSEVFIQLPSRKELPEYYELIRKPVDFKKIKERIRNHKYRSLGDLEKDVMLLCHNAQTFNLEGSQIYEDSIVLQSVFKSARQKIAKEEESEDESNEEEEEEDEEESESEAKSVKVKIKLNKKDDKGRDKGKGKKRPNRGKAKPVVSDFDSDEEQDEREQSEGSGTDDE

DC50 [1]	Compound	DC50 [2]	Dmax [3]
> 30 nM	Cc1ncsc1-c1ccc([C@@H](C)NC(=O)[C@H]2C[C@H](O)CN2C(=O)[C@H](c2cc(OCCN3CCC(O)(CN4CC(Oc5cc(N6C7CCC6CN(c6cc(-c8ccccc8O)nnc6N)C7)ccn5)C4)CC3)no2)C(C)C)cc1 (mixture of isomers) [compound 446, rac-(2R,4S)-1-((2S)-2-(3-(2-(4-((3-((4-(3-(3-amino-6-(2-hydroxyphenyl)pyridazin-4-yl)-3,8-diazabicyclo[3.2.1]octan-8-yl)pyridin-2-yl)oxy)azetidin-1-yl)methyl)-4-hydroxypiperidin-1-yl)ethoxy)isoxazol-5-yl)-3-methylbutanoyl)-4-hydroxy-N-((R)-1-(4-(4-methylthiazol-5-yl)phenyl)ethyl)pyrrolidine-2-carboxamide]	–	–
> 30 nM	Cc1nccn1-c1ccc([C@@H](C)NC(=O)[C@H]2C[C@H](O)CN2C(=O)[C@@H](c2cc(N3CCN(CC4CCN(C[C@H]5C[C@H](Oc6cc(N7C8CCC7CN(c7cc(-c9ccccc9O)nnc7N)C8)ccn6)C5)CC4)CC3)no2)C(C)C)cc1 (racemic) [compound 447, rac-(2R,4S)-1-((2R)-2-(3-(4-((1-(((1r,3r)-3-((4-(3-(3-amino-6-(2-hydroxyphenyl)pyridazin-4-yl)-3,8-diazabicyclo[3.2.1]octan-8-yl)pyridin-2-yl)oxy)cyclobutyl)methyl)piperidin-4-yl)methyl)piperazin-1-yl)isoxazol-5-yl)-3-methylbutanoyl)-4-hydroxy-N-((R)-1-(4-(2-methyl-1H-imidazol-1-yl)phenyl)ethyl)pyrrolidine-2-carboxamide]	–	–
–	Cc1ncsc1-c1ccc([C@H](C)NC(=O)[C@@H]2C[C@@H](O)CN2C(=O)[C@H](c2cc(OCC[C@@H]3CCN(C[C@H]4C[C@H](Oc5cc(N6C7CCC6CN(c6cc(-c8ccccc8O)nnc6N)C7)ccn5)C4)C[C@@H]3C)no2)C(C)C)cc1 (racemic) [compound 543, (2S,4R)-1-((2S)-2-(3-(2-((3R,4S)-1-(((1r,3R)-3-((4-(3-(3-amino-6-(2-hydroxyphenyl)pyridazin-4-yl)-3,8-diazabicyclo[3.2.1]octan-8-yl)pyridin-2-yl)oxy)cyclobutyl)methyl)-3-methylpiperidin-4-yl)ethoxy)isoxazol-5-yl)-3-methylbutanoyl)-4-hydroxy-N-((S)-1-(4-(4-methylthiazol-5-yl)phenyl)ethyl)pyrrolidine-2-carboxamide]	> 30 nM	–
–	Cc1ncsc1-c1ccc([C@H](C)NC(=O)[C@@H]2C[C@@H](O)CN2C(=O)[C@@H](c2cc(OCC[C@@H]3CCN(C[C@H]4C[C@H](Oc5cc(N6C7CCC6CN(c6cc(-c8ccccc8O)nnc6N)C7)ccn5)C4)C[C@@H]3C)no2)C(C)C)cc1 (racemic) [compound 544, (2S,4R)-1-((2R)-2-(3-(2-((3R,4S)-1-(((1r,3R)-3-((4-(3-(3-amino-6-(2-hydroxyphenyl)pyridazin-4-yl)-3,8-diazabicyclo[3.2.1]octan-8-yl)pyridin-2-yl)oxy)cyclobutyl)methyl)-3-methylpiperidin-4-yl)ethoxy)isoxazol-5-yl)-3-methylbutanoyl)-4-hydroxy-N-((S)-1-(4-(4-methylthiazol-5-yl)phenyl)ethyl)pyrrolidine-2-carboxamide]	< 2.5 nM	> 75%
–	Cc1ncsc1-c1ccc([C@H](C)NC(=O)[C@@H]2C[C@@H](O)CN2C(=O)[C@H](c2cc(OCC[C@@H]3CCN(C[C@H]4C[C@H](Oc5cc(N6C7CCC6CN(c6cc(-c8ccccc8O)nnc6N)C7)ccn5)C4)C[C@H]3C)no2)C(C)C)cc1 (racemic) [compound 545, (2S,4R)-1-((2S)-2-(3-(2-((3S,4S)-1-(((1r,3S)-3-((4-(3-(3-amino-6-(2-hydroxyphenyl)pyridazin-4-yl)-3,8-diazabicyclo[3.2.1]octan-8-yl)pyridin-2-yl)oxy)cyclobutyl)methyl)-3-methylpiperidin-4-yl)ethoxy)isoxazol-5-yl)-3-methylbutanoyl)-4-hydroxy-N-((S)-1-(4-(4-methylthiazol-5-yl)phenyl)ethyl)pyrrolidine-2-carboxamide]	2.5 to 10 nM	> 75%
–	Cc1ncsc1-c1ccc([C@H](C)NC(=O)[C@@H]2C[C@@H](O)CN2C(=O)[C@@H](c2cc(OCC[C@@H]3CCN(C[C@H]4C[C@H](Oc5cc(N6C7CCC6CN(c6cc(-c8ccccc8O)nnc6N)C7)ccn5)C4)C[C@H]3C)no2)C(C)C)cc1 (racemic) [compound 546, (2S,4R)-1-((2R)-2-(3-(2-((3S,4S)-1-(((1r,3S)-3-((4-(3-(3-amino-6-(2-hydroxyphenyl)pyridazin-4-yl)-3,8-diazabicyclo[3.2.1]octan-8-yl)pyridin-2-yl)oxy)cyclobutyl)methyl)-3-methylpiperidin-4-yl)ethoxy)isoxazol-5-yl)-3-methylbutanoyl)-4-hydroxy-N-((S)-1-(4-(4-methylthiazol-5-yl)phenyl)ethyl)pyrrolidine-2-carboxamide]	< 2.5 nM	> 75%
–	Cc1ncsc1-c1ccc([C@H](C)NC(=O)[C@@H]2C[C@@H](O)CN2C(=O)[C@H](c2cc(OCC[C@H]3CCN(C[C@H]4C[C@H](Oc5cc(N6C7CCC6CN(c6cc(-c8ccccc8O)nnc6N)C7)ccn5)C4)[C@@H](C)C3)no2)C(C)C)cc1 (racemic) [compound 547, (2S,4R)-1-((2S)-2-(3-(2-((2S,4S)-1-(((1r,3S)-3-((4-(3-(3-amino-6-(2-hydroxyphenyl)pyridazin-4-yl)-3,8-diazabicyclo[3.2.1]octan-8-yl)pyridin-2-yl)oxy)cyclobutyl)methyl)-2-methylpiperidin-4-yl)ethoxy)isoxazol-5-yl)-3-methylbutanoyl)-4-hydroxy-N-((S)-1-(4-(4-methylthiazol-5-yl)phenyl)ethyl)pyrrolidine-2-carboxamide]	> 30 nM	–
–	Cc1ncsc1-c1ccc([C@H](C)NC(=O)[C@@H]2C[C@@H](O)CN2C(=O)[C@H](c2cc(OCC[C@H]3CCN(C[C@H]4C[C@H](Oc5cc(N6C7CCC6CN(c6cc(-c8ccccc8O)nnc6N)C7)ccn5)C4)C[C@H]3C)no2)C(C)C)cc1 (racemic) [compound 565, (2S,4R)-1-((2S)-2-(3-(2-((3S,4R)-1-(((1r,3S)-3-((4-(3-(3-amino-6-(2-hydroxyphenyl)pyridazin-4-yl)-3,8-diazabicyclo[3.2.1]octan-8-yl)pyridin-2-yl)oxy)cyclobutyl)methyl)-3-methylpiperidin-4-yl)ethoxy)isoxazol-5-yl)-3-methylbutanoyl)-4-hydroxy-N-((S)-1-(4-(4-methylthiazol-5-yl)phenyl)ethyl) pyrrolidine-2-carboxamide]	> 30 nM	–
–	Cc1ncsc1-c1ccc([C@H](C)NC(=O)[C@@H]2C[C@@H](O)CN2C(=O)[C@@H](c2cc(OCC[C@H]3CCN(C[C@H]4C[C@H](Oc5cc(N6C7CCC6CN(c6cc(-c8ccccc8O)nnc6N)C7)ccn5)C4)C[C@H]3C)no2)C(C)C)cc1 (racemic) [compound 566, (2S,4R)-1-((2R)-2-(3-(2-((3S,4R)-1-(((1r,3S)-3-((4-(3-(3-amino-6-(2-hydroxyphenyl)pyridazin-4-yl)-3,8-diazabicyclo[3.2.1]octan-8-yl)pyridin-2-yl)oxy)cyclobutyl)methyl)-3-methylpiperidin-4-yl)ethoxy)isoxazol-5-yl)-3-methylbutanoyl)-4-hydroxy-N-((S)-1-(4-(4-methylthiazol-5-yl)phenyl)ethyl) pyrrolidine-2-carboxamide]	< 2.5 nM	> 75%
–	Cc1ncsc1-c1ccc([C@H](C)NC(=O)[C@@H]2C[C@@H](O)CN2C(=O)[C@@H](c2cc(OCCN3CC[C@@H](OCCc4cc(N5C6CCC5CN(c5cc(-c7ccccc7O)nnc5N)C6)ccn4)C[C@@H]3C)no2)C(C)C)cc1 (racemic) [compound 567, (2S,4R)-1-((2R)-2-(3-(2-((2S,4R)-4-(2-(4-(3-(3-amino-6-(2-hydroxyphenyl)pyridazin-4-yl)-3,8-diazabicyclo[3.2.1]octan-8-yl)pyridin-2-yl)ethoxy)-2-methylpiperidin-1-yl)ethoxy)isoxazol-5-yl)-3-methylbutanoyl)-4-hydroxy-N-((S)-1-(4-(4-methylthiazol-5-yl)phenyl)ethyl) pyrrolidine-2-carboxamide]	2.5 to 10 nM	> 75%
–	Cc1ncsc1-c1ccc([C@H](C)NC(=O)[C@@H]2C[C@@H](O)CN2C(=O)[C@@H](c2cc(OCCN3CC[C@H](OCCc4cc(N5C6CCC5CN(c5cc(-c7ccccc7O)nnc5N)C6)ccn4)C[C@@H]3C)no2)C(C)C)cc1 (racemic) [compound 568, (2S,4R)-1-((2R)-2-(3-(2-((2S,4S)-4-(2-(4-(3-(3-amino-6-(2-hydroxyphenyl)pyridazin-4-yl)-3,8-diazabicyclo[3.2.1]octan-8-yl)pyridin-2-yl)ethoxy)-2-methylpiperidin-1-yl)ethoxy)isoxazol-5-yl)-3-methylbutanoyl)-4-hydroxy-N-((S)-1-(4-(4-methylthiazol-5-yl)phenyl)ethyl)pyrrolidine-2-carboxamide]	< 2.5 nM	> 75%
